The source of these data is paper PMC12051234, “NrdR in Streptococcus and Listeria spp.: DNA Helix Phase Dependence of the Bacterial Ribonucleotide Reductase Repressor” (Molecular Microbiology, 2025).

For the assay, the target named is T1, LmoNrdR (Listeria monocytogenes, UniProt Q8Y6W9).
T1 construct: gene nrdR; full-length, C-terminal His6 tag kept (pET30a(+), NdeI/XhoI), E. coli BL21(DE3); 19 kDa with tag
T1 sequence (Q8Y6W9 1-154): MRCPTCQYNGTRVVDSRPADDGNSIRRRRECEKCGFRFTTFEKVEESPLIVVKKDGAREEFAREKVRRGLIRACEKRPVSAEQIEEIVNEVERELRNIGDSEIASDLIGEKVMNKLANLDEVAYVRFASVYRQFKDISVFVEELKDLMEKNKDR
Kind of assay: size exclusion chromatography, oligomer shift; MST of DNA binding. Particulars: 25 mM Bis-Tris propane pH 6.5, 5 mM MgCl2, 100 mM KCl, 4 C; ADP alone. Background: Size exclusion chromatography separates by hydrodynamic size, large species first.

For `Nc1ncnc2c1ncn2[C@@H]1O[C@H](COP(=O)(O)OP(=O)(O)O)[C@@H](O)[C@H]1O` [ADP], the “size exclusion chromatography, oligomer shift; MST of DNA binding” value is on record as “LmoNrdR also eluted as a tetramer in the presence of only ADP”.
